# US5674849A, “Anti-viral compositions” (priority 1995, dated 1997)
# Tested on: HIV-1 strain NL4-3
# Assay: p24 antigen inhibition in HIV-1 infected HUT-78 cells
# Assay type: cell-based
# Conditions: for Expected % inhibition: assuming additive effect; for Observed % inhibition: p24, day 9
# Experimental: Control cells were pretreated in 3.5 ml maintenance media under the same conditions.
# The tubes were centrifuged at 1200 rpm for 5 minutes to pellet the cells and each pellet was resuspended in 1 ml of stock HIV-1 strain NL4-3 (obtained from AIDS Research and Reference Reagent Program, Rockville, Md.) to obtain an MOI (multiplicity of infection) of about 0.05. The cells were incubated at 37° C. for 1 hour to allow viral adsorption to occur. […] These cells were centrifuged as above, the resulting pellets were resuspended in 1 ml of media and incubated for 1 hour at 37° C.
# AZT (Burroughs Wellcome Co.) thawed from sterile stock aliquots was serially diluted in media and dispensed at a volume of 100 μl per well of microtiter plate for the cytotoxicity control wells, compound color control wells and the test wells. Treated and untreated infected and uninfected cells were dispensed at a volume of 100 μl per well. […]
# The plates were incubated by 37° C. in 5% CO2.
# On the 9th day, 20 μl supernatant was removed from above settled cells in the Test, Virus Control and Cell Control wells. The supernatant was assayed for the presence of p24 antigen using a Coulter Corporation p24 Antigen Test Kit in accordance with the manufacturter's directions.
# % Observed Inhibition=[(VC-Test)/(VC)]×100
# where VC is the mean p24 of the Virus Control wells; and
# Test in the mean p24 of the Test wells.
# % Expected Inhibition=X+Y(100-X)
# Y is observed % inhibition of AZT.
smiles,measurement,setting,value
"Cc1cn([C@H]2C[C@H](N=[N+]=[N-])[C@@H](CO)O2)c(=O)[nH]c1=O [AZT, azidothymidine, reference compound]",Expected % inhibition,"AZT 10 nM, 4C 0 μM",-406.1%
same,Observed % inhibition,"AZT 10 nM, 4C 0 μM",-406.1%
same,Expected % inhibition,"AZT 30 nM, 4C 0 μM",-437.4%
same,Observed % inhibition,"AZT 30 nM, 4C 0 μM",-437.4%
same,Expected % inhibition,"AZT 100 nM, 4C 0 μM",-14.2%
same,Observed % inhibition,"AZT 100 nM, 4C 0 μM",-14.2%
same,Expected % inhibition,"AZT 300 nM, 4C 0 μM",-9.8%
same,Observed % inhibition,"AZT 300 nM, 4C 0 μM",-9.8%
same,Expected % inhibition,"AZT 1000 nM, 4C 0 μM",-7.7%
same,Observed % inhibition,"AZT 1000 nM, 4C 0 μM",-7.7%
"CC(=O)N[C@H](CCCNC(=N)N)C(=O)N[C@H](CCCNC(=N)N)C(=O)N[C@H](CCCNC(=N)N)C(=O)N[C@H](CCCNC(=N)N)C(=O)N[C@H](CCCNC(=N)N)C(=O)N[C@H](CCCNC(=N)N)C(=O)N[C@H](CCCNC(=N)N)C(=O)N[C@H](CCCNC(=N)N)C(=O)N[C@H](CCCNC(=N)N)C(N)=O [4C, acetyl-[D-Arg]9 -NH2]",Expected % inhibition,"AZT 0 nM, 4C 0.001 μM",-412.7%
same,Observed % inhibition,"AZT 0 nM, 4C 0.001 μM",-412.7%
same,Expected % inhibition,"AZT 0 nM, 4C 0.003 μM",-256.2%
same,Observed % inhibition,"AZT 0 nM, 4C 0.003 μM",-256.2%
same,Expected % inhibition,"AZT 0 nM, 4C 0.01 μM",-22.8%
same,Observed % inhibition,"AZT 0 nM, 4C 0.01 μM",-22.8%
same,Expected % inhibition,"AZT 0 nM, 4C 0.03 μM",5.9%
same,Observed % inhibition,"AZT 0 nM, 4C 0.03 μM",5.9%
same,Expected % inhibition,"AZT 0 nM, 4C 0.1 μM",-177.0%
same,Observed % inhibition,"AZT 0 nM, 4C 0.1 μM",-177.0%
same,Expected % inhibition,"AZT 0 nM, 4C 0.3 μM",25.5%
same,Observed % inhibition,"AZT 0 nM, 4C 0.3 μM",25.5%
same,Expected % inhibition,"AZT 0 nM, 4C 10 μM",21.9%
same,Observed % inhibition,"AZT 0 nM, 4C 10 μM",21.9%
same,Expected % inhibition,"AZT 0 nM, 4C 30 μM",26.5%
same,Observed % inhibition,"AZT 0 nM, 4C 30 μM",26.5%
